Results: patent US9062124B2, “GIP-based mixed agonists for treatment of metabolic disorders and obesity” (priority 2008, dated 2015)
Read-outs that look alike come from different tables or passages of the source. Where a SMILES comes first, the peptide text is derived from it. Bridges are numbered along the chain shown (N, C = ends). Where no end group is shown, it is not given here. [ ]: non-standard residue; d: D form. PEG 40 kDa = PEG (40 kDa) covalently attached to Cys; C18 acyl = 18 carbon fatty acyl group; Abu = CC[C@H](N)C(=O)O; Aib = CC(C)(N)C(=O)O

How the values were obtained:
Format in all cases: cell-based
glucagon receptor = target: T1, glucagon receptor (Homo sapiens, UniProt P47871); experiment: cAMP synthesis functional assay (firefly luciferase reporter in HEK293 cells), glucagon receptor
T1 construct: expressed in transfected cells; host or cells: HEK293

GLP-1 receptor = target: T2, GLP-1 receptor (Homo sapiens, UniProt P43220); experiment: cAMP synthesis functional assay (firefly luciferase reporter in HEK293 cells), GLP-1 receptor
T2 construct: expressed in transfected cells; host or cells: HEK293

GIP receptor = target: T3, GIP receptor (Homo sapiens, UniProt P48546); experiment: cAMP synthesis functional assay (firefly luciferase reporter in HEK293 cells), GIP receptor
T3 construct: expressed in transfected cells; host or cells: HEK293
T3 sequence (P48546 22-466): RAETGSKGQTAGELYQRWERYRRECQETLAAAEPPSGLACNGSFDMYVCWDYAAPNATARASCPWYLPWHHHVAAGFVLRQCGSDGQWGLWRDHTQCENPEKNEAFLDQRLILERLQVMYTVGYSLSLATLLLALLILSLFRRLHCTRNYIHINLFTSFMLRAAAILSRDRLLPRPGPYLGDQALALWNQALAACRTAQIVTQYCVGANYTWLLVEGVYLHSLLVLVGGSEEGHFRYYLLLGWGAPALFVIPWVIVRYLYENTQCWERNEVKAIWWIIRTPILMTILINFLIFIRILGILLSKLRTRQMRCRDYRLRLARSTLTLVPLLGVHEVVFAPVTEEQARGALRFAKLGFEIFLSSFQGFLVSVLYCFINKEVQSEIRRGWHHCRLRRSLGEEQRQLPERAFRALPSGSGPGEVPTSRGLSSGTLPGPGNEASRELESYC

[1] = tested on: glucagon receptor, GLP-1 receptor or GIP receptor; experiment: Agonist profile across receptors assigned from the cAMP reporter assay data; conditions: assigned from the in vitro EC50 data of Tables 1-4
[2] = Glucagon Receptor EC50, cAMP luciferase reporter assay as in Example 16
[3] = relative to the standard (Std.) EC50 of the same run
[4] = GLP-1 Receptor EC50, cAMP luciferase reporter assay as in Example 16
[5] = Table 1, relative to the native hormone of the indicated receptor

T1 sequence (P47871 26-477): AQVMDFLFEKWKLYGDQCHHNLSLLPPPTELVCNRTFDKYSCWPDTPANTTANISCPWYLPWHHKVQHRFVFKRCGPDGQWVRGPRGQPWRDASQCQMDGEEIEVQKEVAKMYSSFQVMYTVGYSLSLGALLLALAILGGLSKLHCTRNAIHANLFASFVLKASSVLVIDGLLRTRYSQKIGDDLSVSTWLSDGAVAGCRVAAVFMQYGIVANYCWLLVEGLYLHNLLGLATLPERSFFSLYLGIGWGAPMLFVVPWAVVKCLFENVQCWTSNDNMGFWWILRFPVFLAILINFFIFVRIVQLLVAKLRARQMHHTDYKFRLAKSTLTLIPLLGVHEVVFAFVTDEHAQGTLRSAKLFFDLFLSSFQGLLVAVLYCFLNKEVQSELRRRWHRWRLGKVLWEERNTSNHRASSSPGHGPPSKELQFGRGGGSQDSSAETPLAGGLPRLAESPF
T2 sequence (P43220 24-463, species assumed): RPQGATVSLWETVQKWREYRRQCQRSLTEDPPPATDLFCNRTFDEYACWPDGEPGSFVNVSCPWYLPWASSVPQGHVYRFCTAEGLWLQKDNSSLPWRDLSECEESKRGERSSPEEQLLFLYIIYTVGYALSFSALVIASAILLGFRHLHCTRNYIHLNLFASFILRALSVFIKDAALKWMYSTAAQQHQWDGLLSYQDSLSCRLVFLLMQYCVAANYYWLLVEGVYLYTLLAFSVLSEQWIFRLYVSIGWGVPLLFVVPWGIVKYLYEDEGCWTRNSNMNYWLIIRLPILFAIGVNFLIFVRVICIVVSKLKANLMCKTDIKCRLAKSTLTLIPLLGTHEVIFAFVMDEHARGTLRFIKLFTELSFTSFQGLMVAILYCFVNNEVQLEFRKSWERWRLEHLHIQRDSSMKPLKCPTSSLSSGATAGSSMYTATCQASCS

Molecule	Glucagon Receptor relative activity (glucagon receptor; [3]) [%]	GLP-1 Receptor relative activity (GLP-1 receptor; [3]) [%]	GIP Receptor relative activity (GIP receptor; [3]) [%]	receptor activity profile (glucagon / GLP-1 / GIP agonism) [1]	also measured
CC[C@H](C)[C@H](NC(=O)[C@H](CO)NC(=O)[C@H](Cc1ccc(O)cc1)NC(=O)[C@H](CC(=O)O)NC(=O)[C@H](CO)NC(=O)[C@@H](NC(=O)[C@H](Cc1ccccc1)NC(=O)[C@@H](NC(=O)CNC(=O)[C@H](CCC(N)=O)NC(=O)C(C)(C)NC(=O)[C@@H](N)Cc1ccc(O)cc1)[C@@H](C)O)[C@@H](C)O)C(=O)N[C@@H](Cc1ccc(O)cc1)C(=O)N[C@@H](CC(C)C)C(=O)N[C@@H](CC(=O)O)C(=O)N[C@@H](CCCCN)C(=O)N[C@@H](CCC(N)=O)C(=O)N[C@@H](C)C(=O)N[C@@H](C)C(=O)NC(C)(C)C(=O)N[C@@H](CCC(=O)O)C(=O)N[C@@H](Cc1ccccc1)C(=O)N[C@H](C(=O)N[C@@H](CC(N)=O)C(=O)N[C@@H](Cc1c[nH]c2ccccc12)C(=O)N[C@@H](CC(C)C)C(=O)N[C@@H](CC(C)C)C(=O)N[C@@H](C)C(=O)NCC(=O)NCC(=O)N1CCC[C@H]1C(=O)N[C@@H](CO)C(=O)N[C@@H](CO)C(=O)NCC(=O)N[C@@H](C)C(=O)N1CCC[C@H]1C(=O)N1CCC[C@H]1C(=O)N1CCC[C@H]1C(=O)N[C@@H](CO)C(=O)N[C@@H](CCCCN)C(N)=O)C(C)C [mt-280] (H-Y[Aib]QGTFTSDYSIYLDKQAA[Aib]EFVNWLLAGGPSSGAPPPSK-NH2; N-terminus assumed)	74.74	153.17	159.06	exhibited activity at the GIP, GLP-1, and glucagon receptors	EC50 (glucagon receptor; [2]): 0.0677 nM; EC50 (GLP-1 receptor; [4]): 0.0126 nM
mt-249: linear peptide lacking a lactam bridge, AIB at position 16 and/or 20 (Y[Aib]QGTFTSDYSIYLD[Aib]QAAQEFVNWLLAGGPSSGAPPPSC(PEG 40 kDa)-NH2)	–	–	–	exhibited activities of glucagon/GLP-1/GIP triagonists	Glucagon Receptor relative activity (glucagon receptor; Table 2): 0.59%; EC50 (glucagon receptor; read-out: Glucagon Receptor EC50, Table 2, linear peptides with AIB at position 16 and/or 20): 10.3 nM; GLP-1 Receptor relative activity (GLP-1 receptor; Table 2): 2.56%; EC50 (GLP-1 receptor; read-out: GLP-1 Receptor EC50, Table 2): 0.391 nM; GIP Receptor relative activity (GIP receptor; Table 2): 0.63%; EC50 (GIP receptor; read-out: GIP Receptor EC50, Table 2): 2.71 nM
CC[C@H](NC(=O)[C@H](Cc1ccccc1)NC(=O)[C@@H](NC(=O)CNC(=O)[C@H](CCC(N)=O)NC(=O)C(C)(C)NC(=O)[C@@H](N)Cc1ccc(O)cc1)[C@@H](C)O)C(=O)N[C@@H](CO)C(=O)N[C@@H](CC(=O)O)C(=O)N[C@@H](Cc1ccc(O)cc1)C(=O)N[C@@H](CO)C(=O)N[C@H](C(=O)N[C@@H](Cc1ccc(O)cc1)C(=O)N[C@@H](CC(C)C)C(=O)N[C@@H](CC(=O)O)C(=O)N[C@@H](CCCCN)C(=O)N[C@@H](CCC(N)=O)C(=O)N[C@@H](C)C(=O)N[C@@H](C)C(=O)NC(C)(C)C(=O)N[C@@H](CCC(=O)O)C(=O)N[C@@H](Cc1ccccc1)C(=O)N[C@H](C(=O)N[C@@H](CC(N)=O)C(=O)N[C@@H](Cc1c[nH]c2ccccc12)C(=O)N[C@@H](CC(C)C)C(=O)N[C@@H](CC(C)C)C(=O)N[C@@H](C)C(=O)NCC(=O)NCC(=O)N1CCC[C@H]1C(=O)N[C@@H](CO)C(=O)N[C@@H](CO)C(=O)NCC(=O)N[C@@H](C)C(=O)N1CCC[C@H]1C(=O)N1CCC[C@H]1C(=O)N1CCC[C@H]1C(=O)N[C@@H](CO)C(=O)N[C@@H](CS)C(N)=O)C(C)C)[C@@H](C)CC [mt-325] (H-Y[Aib]QGTF[Abu]SDYSIYLDKQAA[Aib]EFVNWLLAGGPSSGAPPPSC-NH2; N-terminus assumed)	86.45	0.83	111.43	exhibited activity at the glucagon and GIP receptors, but not at the GLP-1 receptor	–
CC[C@H](C)[C@H](NC(=O)[C@H](CO)NC(=O)[C@H](Cc1ccc(O)cc1)NC(=O)[C@H](CC(=O)O)NC(=O)[C@H](CO)NC(=O)[C@@H](NC(=O)[C@H](Cc1ccccc1)NC(=O)[C@@H](NC(=O)CNC(=O)[C@H](CCC(=O)O)NC(=O)C(C)(C)NC(=O)[C@@H](N)Cc1ccc(O)cc1)[C@@H](C)O)[C@@H](C)O)C(=O)N[C@@H](Cc1ccc(O)cc1)C(=O)N[C@@H](CC(C)C)C(=O)N[C@@H](CC(=O)O)C(=O)N[C@H]1CCC(=O)NCCCC[C@@H](C(=O)N[C@@H](CCC(=O)O)C(=O)N[C@@H](Cc2ccccc2)C(=O)N[C@H](C(=O)N[C@@H](CC(N)=O)C(=O)N[C@@H](Cc2c[nH]c3ccccc23)C(=O)N[C@@H](CC(C)C)C(=O)N[C@@H](CC(C)C)C(=O)N[C@@H](C)C(=O)NCC(=O)NCC(=O)N2CCC[C@H]2C(=O)N[C@@H](CO)C(=O)N[C@@H](CO)C(=O)NCC(=O)N[C@@H](C)C(=O)N2CCC[C@H]2C(=O)N2CCC[C@H]2C(=O)N2CCC[C@H]2C(=O)N[C@@H](CO)C(=O)N[C@@H](CS)C(N)=O)C(C)C)NC(=O)[C@H](C)NC(=O)[C@H](C)NC(=O)[C@H](CCC(N)=O)NC1=O [mt-174] (H-Y[Aib]EGTFTSDYSIYLDEQAAKEFVNWLLAGGPSSGAPPPSC-NH2; lactam 16-20; N-terminus assumed)	–	–	–	exemplary GLP-1/GIP co-agonist peptides	Glucagon Receptor relative activity (glucagon receptor; [5]): 0.06%; GLP-1 Receptor relative activity (GLP-1 receptor; [5]): 117.65%; GIP Receptor relative activity (GIP receptor; [5]): 95.65%
CCCCCCCCCCCCCC(=O)NCCCC[C@H](NC(=O)[C@@H](NC(=O)[C@H](Cc1ccccc1)NC(=O)[C@H](CCC(=O)O)NC(=O)C(C)(C)NC(=O)[C@H](C)NC(=O)[C@H](C)NC(=O)[C@H](CCC(N)=O)NC(=O)[C@H](CCCCN)NC(=O)[C@H](CC(=O)O)NC(=O)[C@H](CC(C)C)NC(=O)[C@H](Cc1ccc(O)cc1)NC(=O)[C@@H](NC(=O)[C@H](CO)NC(=O)[C@H](Cc1ccc(O)cc1)NC(=O)[C@H](CC(=O)O)NC(=O)[C@H](CO)NC(=O)[C@@H](NC(=O)[C@H](Cc1ccccc1)NC(=O)[C@@H](NC(=O)CNC(=O)[C@H](CCC(=O)O)NC(=O)C(C)(C)NC(=O)[C@@H](N)Cc1ccc(O)cc1)[C@@H](C)O)[C@@H](C)O)[C@@H](C)CC)C(C)C)C(=O)N[C@@H](Cc1c[nH]c2ccccc12)C(=O)N[C@@H](CC(C)C)C(=O)N[C@@H](CC(C)C)C(=O)N[C@@H](C)C(=O)NCC(=O)NCC(=O)N1CCC[C@H]1C(=O)N[C@@H](CO)C(=O)N[C@@H](CO)C(=O)NCC(=O)N[C@@H](C)C(=O)N1CCC[C@H]1C(=O)N1CCC[C@H]1C(=O)N1CCC[C@H]1C(=O)N[C@@H](CO)C(N)=O [mt-265]	0.68	1.77	13.62	exhibited activity at the GIP, GLP-1, and glucagon receptors	EC50 (glucagon receptor; [2]): 6.43 nM; EC50 (GLP-1 receptor; [4]): 0.993 nM; EC50 (GIP receptor; GIP Receptor EC50, cAMP luciferase reporter assay as in Example 16): 0.0624 nM
CC[C@H](C)[C@H](NC(=O)[C@H](CO)NC(=O)[C@H](Cc1ccc(O)cc1)NC(=O)[C@H](CC(=O)O)NC(=O)[C@H](CO)NC(=O)[C@@H](NC(=O)[C@H](Cc1ccccc1)NC(=O)[C@@H](NC(=O)CNC(=O)[C@H](CCC(N)=O)NC(=O)[C@@H](C)NC(=O)[C@@H](N)Cc1ccc(O)cc1)[C@@H](C)O)[C@@H](C)O)C(=O)N[C@@H](Cc1ccc(O)cc1)C(=O)N[C@@H](CC(C)C)C(=O)N[C@@H](CC(=O)O)C(=O)N[C@H]1CCC(=O)NCCCC[C@@H](C(=O)N[C@@H](CCC(=O)O)C(=O)N[C@@H](Cc2ccccc2)C(=O)N[C@H](C(=O)N[C@@H](CC(N)=O)C(=O)N[C@@H](Cc2c[nH]c3ccccc23)C(=O)N[C@@H](CC(C)C)C(=O)N[C@@H](CC(C)C)C(=O)N[C@@H](C)C(=O)NCC(=O)NCC(=O)N2CCC[C@H]2C(=O)N[C@@H](CO)C(=O)N[C@@H](CO)C(=O)NCC(=O)N[C@@H](C)C(=O)N2CCC[C@H]2C(=O)N2CCC[C@H]2C(=O)N2CCC[C@H]2C(=O)N[C@@H](CO)C(=O)N[C@@H](CS)C(N)=O)C(C)C)NC(=O)[C@H](C)NC(=O)[C@H](C)NC(=O)[C@H](CCC(N)=O)NC1=O [mt-166] (H-Y[dA]QGTFTSDYSIYLDEQAAKEFVNWLLAGGPSSGAPPPSC-NH2; lactam 16-20; N-terminus assumed)	–	–	–	exemplary GLP-1/GIP/glucagon triagonist peptides	Glucagon Receptor relative activity (glucagon receptor; [5]): 9.83%; GLP-1 Receptor relative activity (GLP-1 receptor; [5]): 26.87%; GIP Receptor relative activity (GIP receptor; [5]): 5.94%
mt-172: glucagon analog peptide, C-terminal amide (Y[Aib]QGTFTSDYSIYLDEQAAKEFVC(PEG 40 kDa)WLLAG-NH2; lactam 16-20)	–	–	–	exemplary GLP-1/GIP/glucagon triagonist peptides	–
mt-248: sequence of mt-170 with an AIB at position 16 in lieu of the lactam (Y[Aib]QGTFTSDYSIYLD[Aib]QAAKEFVNWLLAGGPSSGAPPPSC(PEG 40 kDa)-NH2)	–	–	–	exhibited activities of glucagon/GLP-1/GIP triagonists	–
mt-175: glucagon analog peptide, C-terminal amide (Y[Aib]QGTFTSDYSIYLDEQAAKEFVC(PEG 40 kDa)WLLAGGPSSGAPPPS-NH2; lactam 16-20)	–	–	–	exemplary GLP-1/GIP/glucagon triagonist peptides	–
mt-310: acylated version of mt-274: C-terminal Lys with C18 fatty acyl group, 40 kDa PEG on Cys at position 24 (Y[Aib]EGTFTSDYSIYLDKQAA[Aib]EFVC(PEG 40 kDa)WLLAGGPSSGAPPPSK(C18 acyl)-NH2)	–	–	–	exhibited activity at the GIP, GLP-1, and glucagon receptors	–
